In brackets after ≈: the same amount, converted by molar mass. Like-named read-outs stand apart in the source and are kept apart here.
Key:
[1] = Bioassay ranking of the analogues tested; details: M + R (MRSA and VRE combined)
[2] = test system: MRSA; assay: Broth microdilution MIC, Example 7 (NCL812 and analogues); type: cell-based, Staphylococcus aureus; details: for activity against MRSA among analogues: MIC testing, two MRSA strains; for MRSA: bioassay ranking
How it was run: (§1)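 Duplicates per isolate, repeated a third time if >one two-fold dilution apart. MIC50, MIC20 and range calculated per bacterial group.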

[3] = test system: VRE; assay: as above; type: cell-based, Enterococcus spp.; details: for activity against VRE among analogues: MIC testing, two VRE strains; for VRE: bioassay ranking
How it was run: as §1

[4] = test system: S. pneumoniae isolates; assay: Disk diffusion susceptibility (CLSI/EUCAST), Example 5; type: cell-based, Streptococcus pneumoniae
Experimental: Isolate susceptibility to 12 different antimicrobials (Table 16) was determined by CLSI and European Committee on Antimicrobial Susceptibility Testing (EUCAST) methods. Antimicrobials were selected based upon the CLSI and EUCAST guidelines. Standardised bacterial suspensions were spread onto MHSBA using a sterile cotton swab. Bacterial suspensions from of Streptococcus pneumoniae were standardised to an OD6O0 between 0.08 and 0.1 using a spectrophotometer and then diluted 1:20. Bacterial colonies were taken from an O/N horse blood agar plate. To ensure the purity of the 1:20 bacterial suspension, 50 μL was spread plated onto horse blood agar and incubated O/N at 37° C. with 5% CO2. The CFU was calculated and compared to the initial plate counts. Antibiotic disks (Purchased from Sigma Aldrich) were placed using a disk dispenser (Purchased from Oxoid) according to CLSI standards. MHSBA plates were incubated for 16 h-24 h at 37° C. in 5% CO2. Zones of complete inhibition were measured in triplicate to the nearest millimeter using a ruler on natural light-reflected growth, and the mode was represented as the diameter for each isolate. Pneumococcal isolates were categorised as sensitive, intermediate (I) or resistant (R) by CLSI standards and quality control (QC) ranges (Table 16).

[5] = test system: Staphylococcus pseudintermedius isolates (MSSP and MRSP); assay: Disk diffusion and Epsilometer susceptibility testing, Example 6; type: cell-based; details: for MIC: Staphylococcus pseudintermedius
[6] = test system: S. aureus isolates (HA-MRSA, CA-MRSA, methicillin-susceptible staphylococci); assay: Kirby-Bauer disc diffusion resistotyping, Example 4; type: cell-based, Staphylococcus aureus
Experimental: Antibiotic-susceptibility profiling of the isolate collection was undertaken using Kirby-Bauer disc diffusion, as recommended by the Clinical and Laboratory Standards Institute (CLSI) on Mueller-Hinton agar. Isolates were grown overnight on SBA at 37° C. Colonies were suspended in physiological saline. Turbidity was adjusted to a 0.5 McFarland standard and suspensions were spread over the medium. Antibiotic discs according to Table 9 below were transferred onto the inoculated medium and analysed after 24 h incubation at 37° C.

Q: Which “M + R” value [1] does the source give for `CC(C)c1ccc(/C=N/NC(=N)N/N=C/c2ccc(C(C)C)cc2)cc1.Cl` [NCL120] here?
A: 6 µg/mL

Q: And the “activity against MRSA among analogues” value [2]?
A: greatest activity

Q: What about the MRSA [2] of the same molecule?
A: 7 µg/mL

Q: What about the “activity against VRE among analogues” value [3] of the same molecule?
A: greatest activity

Q: And the VRE [3]?
A: 5 µg/mL

Q: Which results are given for `CCCc1ccc(C=NNC(=N)NN=Cc2ccc(CCC)cc2)cc1.Cl` [NCL121]?
A: M + R [1]: 30 µg/mL; activity against MRSA among analogues [2]: greatest activity; MRSA [2]: 32 µg/mL; activity against VRE among analogues [3]: greatest activity; VRE [3]: 28 µg/mL

Q: Which “M + R” value [1] does the source give for `Cl.N=C(NN=Cc1ccc(F)c(F)c1)NN=Cc1ccc(F)c(F)c1` [NCL123] here?
A: 9.5 µg/mL

Q: What about the “activity against MRSA among analogues” value [2] of the same molecule?
A: greatest activity

Q: And the MRSA [2]?
A: 15 µg/mL

Q: And the “activity against VRE among analogues” value [3]?
A: greatest activity

Q: And the VRE [3]?
A: 4 µg/mL

Q: What does the source list for `CC(=NNC(=N)NN=C(C)c1ccccc1)c1ccccc1.Cl` [NCL143]?
A: M + R [1]: 12 µg/mL; activity against MRSA among analogues [2]: greatest activity; MRSA [2]: 16 µg/mL; activity against VRE among analogues [3]: greatest activity; VRE [3]: 8 µg/mL

Q: With `Cl.N=C(NN=Cc1ccc2[nH]ccc2c1)NN=Cc1ccc2[nH]ccc2c1` [NCL146] as the molecule, how does the “M + R” value [1] read?
A: 14 µg/mL

Q: What about the “activity against MRSA among analogues” value [2] of the same molecule?
A: greatest activity

Q: What about the MRSA [2] of the same molecule?
A: 12 µg/mL

Q: What about the “activity against VRE among analogues” value [3] of the same molecule?
A: greatest activity

Q: What about the VRE [3] of the same molecule?
A: 16 µg/mL

Q: What does the source list for `Cc1onc(-c2ccccc2)c1C(=O)N[C@@H]1C(=O)N2[C@@H]1SC(C)(C)[C@@H]2C(=O)O` [Oxacillin]?
A: disk diffusion zone diameter ([4]; A66.1): 28 mm; disk diffusion zone diameter ([4]; D39): 26 mm; disk diffusion zone diameter ([4]; EF3030): 18 mm; disk diffusion zone diameter ([4]; L82016): 29 mm; disk diffusion zone diameter ([4]; P9): 26 mm; disk diffusion zone diameter ([4]; P21): 28 mm; disk diffusion zone diameter ([4]; TIGR4): 26 mm; disk diffusion zone diameter ([4]; WCH16): 30 mm; disk diffusion zone diameter ([4]; WCH43): 26 mm; disk diffusion zone diameter ([4]; WCH46): 27 mm; disk diffusion zone diameter ([4]; WCH57): 32 mm; disk diffusion zone diameter ([4]; WCH77): 28 mm; disk diffusion zone diameter ([4]; WCH86): 34 mm; disk diffusion zone diameter ([4]; WCH89): 29 mm; disk diffusion zone diameter ([4]; WCH92): 25 mm; disk diffusion zone diameter ([4]; WCH137): 29 mm; disk diffusion zone diameter ([4]; WCH158): 28 mm; disk diffusion zone diameter ([4]; WCH184): 11 mm; disk diffusion zone diameter ([4]; WCH211): 25 mm; disk diffusion zone diameter ([4]; WU2): 28 mm; disc diffusion zone, all MRSP isolates resistant ([5]; 13 MRSP isolates): ≤ 17 mm; MIC ([5]; 13 MRSP isolates, read-out: E-test MIC, all MRSP isolates resistant): ≥ 0.5 µg/mL; MIC ([5]; isolate S1P1, read-out: Etest MIC): > 256 µg/mL; MIC ([5]; isolate S2P2, read-out: Etest MIC): > 256 µg/mL; MIC ([5]; isolate S3P3, read-out: Etest MIC): > 256 µg/mL; MIC ([5]; isolate S4P4, read-out: Etest MIC): 2 µg/mL (≈ 4.98 µM); MIC ([5]; isolate S5P5, read-out: Etest MIC): 4 µg/mL (≈ 9.96 µM); MIC ([5]; isolate S6P6, read-out: Etest MIC): > 256 µg/mL; MIC ([5]; isolate S7P7, read-out: Etest MIC): > 256 µg/mL; MIC ([5]; isolate S8P8, read-out: Etest MIC): > 256 µg/mL; MIC ([5]; isolate S9P9, read-out: Etest MIC): 4 µg/mL (≈ 9.96 µM); MIC ([5]; isolate S10P10, read-out: Etest MIC): > 256 µg/mL; MIC ([5]; isolate S11P11, read-out: Etest MIC): > 256 µg/mL; MIC ([5]; isolate S12P12, read-out: Etest MIC): 1.5 µg/mL (≈ 3.74 µM); MIC ([5]; isolate S13P13, read-out: Etest MIC): 0.125 µg/mL (≈ 0.311 µM); MIC ([5]; isolate S14P14, read-out: Etest MIC): 0.25 µg/mL (≈ 0.623 µM); MIC ([5]; isolate S15P15, read-out: Etest MIC): 0.25 µg/mL (≈ 0.623 µM); MIC ([5]; isolate S16P16, read-out: Etest MIC): 0.19 µg/mL (≈ 0.473 µM); MIC ([5]; isolate S17P17, read-out: Etest MIC): 0.25 µg/mL (≈ 0.623 µM); MIC ([5]; isolate S18P18, read-out: Etest MIC): 0.25 µg/mL (≈ 0.623 µM); MIC ([5]; isolate S19P19, read-out: Etest MIC): 0.25 µg/mL (≈ 0.623 µM); MIC ([5]; isolate S20P20, read-out: Etest MIC): 0.25 µg/mL (≈ 0.623 µM); MIC ([5]; isolate S21P21, read-out: Etest MIC): 0.125 µg/mL (≈ 0.311 µM); MIC ([5]; isolate S22P22, read-out: Etest MIC): 0.25 µg/mL (≈ 0.623 µM); MIC ([5]; isolate S23P23, read-out: Etest MIC): 1.5 µg/mL (≈ 3.74 µM); ZD ([5]; isolate S1P1): 0 mm; ZD, Adl ([5]; isolate S1P1): 0 mm; ZD ([5]; isolate S2P2): 0 mm; ZD, Adl ([5]; isolate S2P2): 0 mm; ZD ([5]; isolate S3P3): 0 mm; ZD, Adl ([5]; isolate S3P3): 0 mm; ZD ([5]; isolate S4P4): 0 mm; ZD, Adl ([5]; isolate S4P4): 0 mm; ZD ([5]; isolate S5P5): 0 mm; ZD, Adl ([5]; isolate S5P5): 0 mm; ZD ([5]; isolate S6P6): 0 mm; ZD, Adl ([5]; isolate S6P6): 0 mm; ZD ([5]; isolate S7P7): 0 mm; ZD, Adl ([5]; isolate S7P7): 0 mm; ZD ([5]; isolate S8P8): 0 mm; ZD, Adl ([5]; isolate S8P8): 0 mm; ZD ([5]; isolate S9P9): 0 mm; ZD, Adl ([5]; isolate S9P9): 0 mm; ZD ([5]; isolate S10P10): 0 mm; ZD, Adl ([5]; isolate S10P10): 0 mm; ZD ([5]; isolate S11P11): 0 mm; ZD, Adl ([5]; isolate S11P11): 0 mm; ZD ([5]; isolate S12P12): 13 mm; ZD, Adl ([5]; isolate S12P12): 16 mm; ZD ([5]; isolate S13P13): 26 mm; ZD, Adl ([5]; isolate S13P13): 36 mm; ZD ([5]; isolate S14P14): 22 mm; ZD, Adl ([5]; isolate S14P14): 29 mm; ZD ([5]; isolate S15P15): 22 mm; ZD, Adl ([5]; isolate S15P15): 25 mm; ZD ([5]; isolate S16P16): 26 mm; ZD, Adl ([5]; isolate S16P16): 34 mm; ZD ([5]; isolate S17P17): 22 mm; ZD, Adl ([5]; isolate S17P17): 26 mm; ZD ([5]; isolate S18P18): 22 mm; ZD, Adl ([5]; isolate S18P18): 30 mm; ZD ([5]; isolate S19P19): 25 mm; ZD, Adl ([5]; isolate S19P19): 32 mm; ZD ([5]; isolate S20P20): 23 mm; ZD, Adl ([5]; isolate S20P20): 30 mm; ZD ([5]; isolate S21P21): 27 mm; ZD, Adl ([5]; isolate S21P21): 37 mm; ZD ([5]; isolate S22P22): 21 mm; ZD, Adl ([5]; isolate S22P22): 26 mm; ZD ([5]; isolate S23P23): 13 mm; ZD, Adl ([5]; isolate S23P23): 14 mm; isolates resistant (Kirby-Bauer disc diffusion) ([6]; CA-MRSA (n = 10)): 10.00%; isolates resistant (Kirby-Bauer disc diffusion) ([6]; HA-MRSA (n = 10)): 80.00%; isolates resistant (Kirby-Bauer disc diffusion) ([6]; Methicillin-susceptible staphylococci (n = 10)): 0.00%; resistant isolates, number (percentage) ([6]; Unclassified (n = 2), Overall): 2 (100%); Total isolates resistant (Kirby-Bauer disc diffusion) ([6]; all isolates (n = 30)): 30.00%; resistant isolates, number (percentage) ([6]; mec gene complex A (n = 4), Overall): 4 (100%); resistant isolates, number (percentage) ([6]; mec gene complex A (n = 4), SCCmec type II): 3 (100%); resistant isolates, number (percentage) ([6]; mec gene complex A (n = 4), SCCmec type III): 1 (100%); resistant isolates, number (percentage) ([6]; mec gene complex B (n = 10), Overall): 2 (20%); resistant isolates, number (percentage) ([6]; mec gene complex B (n = 10), SCCmec type I): 1 (50%); resistant isolates, number (percentage) ([6]; mec gene complex B (n = 10), SCCmec type IV): 1 (12.5%); resistant isolates, number (percentage) ([6]; mec gene complex C2 (n = 4), Overall): 1 (25%); resistant isolates, number (percentage) ([6]; mec gene complex C2 (n = 4), SCCmec type V): 1 (25%)

— patent US10253002B2, “Compounds and methods of treating infections” (Neoculi Pty Ltd., priority 2013, dated 2019)
